# US11315778B2, “Spray chambers and methods of using them” (PERKINELMER HEALTH SCIENCES CANADA, INC., priority 2016, dated 2022)
# Assays:
# Format in all cases: cell-based
# [1] = tested on: A2780/CP70 ovarian cancer cell line; assay: Cisplatin uptake time course, single cell ICP-MS
# Method: (§1) Cisplatin uptake in two ovarian cancer cell lines was evaluated using single particle ICP-MS (SP-ICP-MS). The ovarian cancer cell lines A2780 and A2780/CP70 were used in all experiments. Cells were grown in RPMI […] media (Gibco™) supplemented with 10% fetal bovine serum (FBS, Gibco™), insulin (Sigma-Aldrich™), 1-glutamine (Gibco™), and pen/strep (Gibco™) under 5% CO2 at 37° C. For serum starvation experiments, cells were plated and allowed to attach to the dishes. The media was removed and replaced with serum-free media for approximately 18 hours after which the media was replaced with regular media to begin cisplatin treatment. Cisplatin was re-suspended at 1 mg/mL in sterile saline and vigorously shaken for 30 minutes prior to treatment. Cells were treated with 30μM cisplatin for a time course where samples were collected at 1, 2, 4, and 8 hours post-treatment. For analysis, cells were washed twice with phosphate-buffered saline (PBS) and collected using the non-enzymatic cell dissociation solution Cellstripper (Corning™). Cells were centrifuged at 500×g for 10 minutes. The supernatant was discarded, and the cells were resuspended in 1 mL PBS, filtered through a 70μm nylon mesh, and quantitated by hemocytometer counting. Cells were diluted in PBS to a final concentration of 100,000 cells/mL and kept on ice until injection.
# (§2) Analyses were performed with PerkinElmer's NexION® ICP-MS using the Syngistix™ Single Cell Application Software Module for data collection and processing. Instrumental conditions were as follows: sample uptake rate 0.04 mL/minute, 2.0 mm id quartz injector, 1600 Watts RF power, 0.36 L/minute nebulizer gas flow rate, 0.7 L/minute makeup gas flow rate, and a 60 second sample analysis time. A Meinhard HEN nebulizer and the spray chamber of FIG. 2 were also used (though the spray chambers of FIGS. 3, 4 and 5A-5D could be used instead). The Single Cell Sample Introduction Kit (Part No. N8150031) was used for sample introduction to the NexION. The kit consists of a high-efficiency nebulizer (Part No. N8142046) and the spray chamber designed for transport of cells to the plasma. Cells (1-100 microns) are larger than droplets which typically pass through conventional spray chambers (less than 2 microns).
# (§3) Ionic platinum standards were prepared in PBS to matrix match the cell sample. A standard curve was generated using 1, 2, and 3 ppb platinum standard. Transport efficiency was determined using […] gold nanoparticles in PBS.
# (§4) The cells chosen for this study are the ovarian cancer cell lines A2780 and A2780/CP70, which are good models for developing the single cell method since the molecular mechanism for resistance […]. A2780 is a cisplatin-sensitive cell line, while the A2780/CP70 line is cisplatin resistant. This resistance was developed by exposing the A2780 parental cell line to increasing doses of cisplatin. The A2780/CP70 cells developed resistance by reducing cisplatin uptake in addition to up-regulating DNA repair. We explored cisplatin uptake by performing a time course experiment to analyze how the distribution of cisplatin uptake changed over time within the cellular population. Both cell lines were treated for 1, 2, 4, and 8 hours with 30μM cisplatin. […] After the data is collected, the mass distribution peak can be integrated, as shown in FIG. 30C (frequency vs mass(ag)).
# (§5) The time course data was summarized by fitting each histogram with a Log Normal curve. The mean intensity was determined for each time point and plotted to show the cisplatin uptake difference between A2780 and A2780/CP70 cells over time, as shown in FIG. 33.
# [2] = tested on: A2780 ovarian cancer cell line; assay: Cisplatin uptake time course, single cell ICP-MS
# Method: as §1, §2, §3, §4, §5
# [3] = tested on: ovarian cancer cell line (CP70); assay: Single cell ICP-MS of cisplatin-exposed CP70 cells (195Pt monitored); settings: over the course of eight hours, FIG. 21
# Method: A cell suspension can be nebulized by introducing the cell suspension through a nebulizer fluidically coupled to a spray chamber as described herein. The spray chamber can select individual cells and provide them to an inductively coupled plasma. As each cell enters the plasma, it is ionized, and the resulting ion burst from the intrinsic metal species is detected by a mass spectrometer. Each cell is treated the same as an individual particle. Cell concentrations can desirably be around 100,000 cell/mL to minimize coincidence—a situation where to cells are provided at the same time to the plasma.
# To determine the effectiveness of detection of cisplatin using single cell ICP-MS using the spray chambers described herein, an ovarian cancer cell line (CP70) was exposed to cisplatin and monitored over time. Analyses were carried out on a PerkinElmer NexION 350 D ICP-MS with a 2 mm quartz injector and quartz torch operating with an RF power of 1600 W. A spray chamber as shown in FIG. 2 (though the spray chambers of FIGS. 3, 4 and 5A-5D could be used instead) can be used with a high efficiency concentric glass nebulizer (Meinhard) was used with the spray chamber and the NexION 350 D instrument.
# Because background levels of Pt are non-existent and there are no common interferences on 195Pt, each spike represents Pt detected in an individual cell. […]
smiles,measurement,setting,value
N.N.[Cl][Pt][Cl] [cisplatin],uptake of platinum,"[1]; A2780/CP70, 30μM cisplatin, one hour of treatment",very little uptake of platinum
same,effect of serum starvation on cisplatin uptake,"[1]; A2780/CP70, serum-starved vs control cells, FIGS. 34A and 34B",no effect on the uptake of cisplatin
same,uptake of platinum,"[2]; A2780, 30μM cisplatin, one hour of treatment",very little uptake of platinum
same,effect of serum starvation on cisplatin uptake,"[2]; A2780, serum-starved vs control cells, FIGS. 34A and 34B",no effect on the uptake of cisplatin
same,cisplatin uptake over time (mean intensity of Log Normal fit),"[2]; A2780 vs A2780/CP70, 30μM cisplatin, 1-8 hours, FIG. 33",increased cisplatin uptake
same,"population of cells by cisplatin content, comparison of cell lines","[2]; A2780 vs A2780/CP70, 30μM cisplatin, eight hours",increased population of cells with more cisplatin than A2780/CP70
same,Pt content within cells (cisplatin uptake),[3],increases over time
